Experimental data reported in US4510082A, “Pharmacologically active peptides” (Eli Lilly and Company, priority 1983, dated 1985).
Counter-ions that a name gives are not always drawn.

Legend:
[1] = test system: Cox Standard albino mice; test: mouse writhing test (acetic acid induced); format: in vivo; conditions: 0.6% acetic acid i.p., dose reducing writhing frequency by 50%
Protocol: In the mouse writhing test, a writhing response is defined as a contraction of the abdominal musculature followed by extension of the hind limbs. Acetic acid administered intraperitoneally (10 ml./kg.) at a concentration of 0.6% was used to induce a writhing response. Five Cox Standard albino mice weighing 20-22 g. after being fasted overnight were observed simultaneously for the writhing response. Each mouse was used only once. The observation period was then […] and started five minutes following administration of the acetic acid. Inhibition of mouse writhing was calculated from the total number of writhes in the control and test compound-treated groups according to the following formula: [formula]
The dose required to reduce the frequency of writhing by 50% is defined as the ED50 and is calculated by "The use of Regression Line in Reverse", [Brownlee, K.A., Statistical Theory and Methodology in Science and Engineering, 2nd Ed., New York, John Wiley and Sons (1965)].

[2] = test system: mouse (Harlan ND4); test: mouse hot plate test (mouse jump); format: in vivo; conditions: subcutaneous injection, tested 15 minutes after administration, hot plate 55° C.
Protocol: In the mouse hot plate test, an upright acrylic cylinder comprising, as its base, a hot plate surface which is maintained at 55° C. is used. A mouse (Harlan ND4) is given, by subcutaneous injection, a predetermined amount of test compound dissolved or suspended in a suitable carrier, and, 15 minutes after administration of the test compound, the mouse is placed on the hot plate surface. The latency in seconds until the mouse jumps from the hot plate surface is measured. […] This must occur in a dose range which produces no motor incoordination or incapacitation. The following Table records ED50 results obtained from this test. By the term "ED50 " is meant that dose which produces analgesia in 50% of the mice tested. Analgesia is defined as a response latency in the presence of test compound that is equal to or greater than the control response latency plus two standard deviations. The percent analgesia data are converted to probits, and the ED50 is calculated by regression analysis of the dose-response data. Each dose response curve must have at least four points, and each point is determined using data from a minimum of ten treated mice and ten control mice.

[3] = test system: mice; conditions: cited from earlier work

Row | Molecule | Mouse Writhing, ED50, Oral [1] | Mouse Writhing, ED50, Subcutaneous [1] | Mouse Jump ED50 [2] | analgesic activity upon intracerebroventricular administration [3]
1 | CCN(C(=O)CNC(=O)[C@@H](C)NC(=O)[C@H](Cc1ccc(O)cc1)NC)[C@@H](Cc1ccccc1)CN(C)C [Ala Et H, L-(N-Methyl)tyrosyl-D-alanylglycine, [N-ethyl-N-(1-benzyl-2-dimethylamino)ethyl]amide, Diacetate Salt] | 50.4 mg/kg | 1.14 mg/kg | 0.04 mg/kg | –
2 | CCN(C(=O)CNC(=O)[C@@H](C)NC(=O)[C@H](Cc1ccc(O)cc1)NC)[C@@H](Cc1ccc(F)cc1)CN(C)C [Ala Et p-F, L-(N-Methyl)tyrosyl-D-alanylglycine[N-ethyl-N-[1-(4'-fluorobenzyl)-2-dimethylamino]ethyl]amide, Diacetate Salt] | 88.2 mg/kg | 2.1 mg/kg | 0.04 mg/kg | –
3 | CN[C@@H](Cc1ccc(O)cc1)C(=O)N[C@H](C)C(=O)NCC(=O)N(C)[C@@H](Cc1ccccc1)CN(C)C [Ala Me H, L-(N-Methyl)tyrosyl-D-alanylglycine, [N-methyl-N-(1-benzyl-2-dimethylamino)ethyl]amide, Diacetate Salt] | ~ 160 mg./kg. | 1.81 mg/kg | 0.05 mg/kg | –
4 | CCN(C(=O)CNC(=O)[C@@H](COC)NC(=O)[C@H](Cc1ccc(O)cc1)NC)[C@@H](Cc1ccccc1)CN(C)C [Ser(Me) Et H, L-(N-Methyl)tyrosyl-D-(O-methyl)serylglycine, [N-ethyl-N-(1-benzyl-2-dimethylamino)ethyl]amide, Diacetate Salt] | 53.5 mg/kg | 3.6 mg/kg | 0.09 mg/kg | –
5 | H-Tyr-Gly-Gly-Phe-Leu-OH [leucine enkephalin] | – | – | – | exhibit analgesic activity
6 | H-Tyr-Gly-Gly-Phe-Met-OH [methionine enkephalin] | – | – | – | exhibit analgesic activity
